{"source": "patent US9695219B2", "about": "“Polypeptide having antibacterial activity and angiogenesis-inducing activity and wound-healing drug containing said polypeptide” (priority 2009, dated 2017)", "key": {"[1]": {"test_system": "paper disc model, Crl:CD (SD) rats", "test": "Ability to form granulation tissue in paper disc model", "assay_type": "in vivo, rat", "conditions": "1, 10 or 100 μg/disc, subcutaneous, eight days", "procedure": "Then, the ability to form granulation tissue of these polypeptides in vivo was studied. Each of the peptides which were test substances and whose concentration was respectively 25, 250 and 2500 μg/mL, the bFGF formulation whose concentration was respectively 2.5, 25 and 250 μg/mL (positive controls) or saline (negative controls) was added to a paper disc (FILTER PAPER φ8 mm, […]) in an amount of 40 μl, such that, in the final state, the dosage of each peptide was 1, 10 or 100 μg/disc. The prepared paper discs were embedded subcutaneously into the back of Crl:CD (SD) rats (male, 9-week old, obtained from Charles River Laboratories Japan, Inc.). Eight days later, the paper discs were taken out, and the granulation tissues around the paper discs were collected to determine their wet weight."}, "rat cut-wound model": {"test_system": "rat cut-wound model", "test": "Effect to heal cut wounds, wound closing tension", "assay_type": "in vivo", "conditions": "500 ng, 5 and 50 μg dropwise once a day, measured on Day 6", "procedure": "Next, using rat cut-wound model, the effect of the polypeptides, SR-07 and SR-08, to heal cut wounds in vivo was evaluated. As described in Tetsuaki Yamaura et al. (Oyo Yakuri (Pharmacometrics) 22, 565-579 (1981)), the rat cut-wound model was produced and the wound closing tension was measured.\nThat is, a cut wound of 30 to 36 mm was made on the back of Crl:CD (SD) rats (male, 7-week old, obtained from Charles River Laboratories Japan, Inc.) using a safety razor, and sutured at 3 points equally spaced. The day when this surgical treatment was applied was regarded as […] (Day 0). Onto the suture site, 50 μL of each of the peptides which were test substances and were respectively prepared to the concentration of 10, 100 and 1000 μg/mL was added dropwise (the added amounts were 500 ng and 5 and 50 μg, respectively). Additions of 50 μL physiological saline were regarded as negative controls (Saline). Each peptide was added dropwise once a day till the day when the measurement of the wound closing tension was carried out. The sutures were removed on Day 3, and the wound closing tension was measured on Day 6."}, "[2]": {"test_system": "rat infected-wound model (wound infected with Staphylococcus aureus)", "test": "Healing effect in infected wounds", "assay_type": "in vivo", "conditions": "50 μg dropwise Days 0-3 with Staphylococcus aureus, followed to Day 10; vs bFGF formulation 3 μg", "procedure": "Referring to Stenberg B D et al. (J Surg Res. 1991 January; 50(1):47-50.) and Hayward P et al. (Am J Surg. 1992 March; 163(3):288-93.), a rat infected-wound model was produced as described below. HWY/slc hairless rats (male, 7-week old, obtained from Japan SLC, Inc.) were used. The day before full-thickness defects were created, the number of leukocytes was measured and cyclophosphamide was administered in tail vein (100 mg/kg). On the next day, the number of leukocytes was counted. Only the individuals in which the number of leukocytes was not more than 5000, were used. A square-shaped full-thickness defects of 1.73×1.73 cm (about 3 cm^2) were created on the back of the rats, and 25 μL of Staphylococcus aureus (about 10^5 CFU/25 μL) and SR-07 or SR-08 peptide as a test substance (2 mg/mL) was added dropwise onto the defect sites (the administered amount was 50 μg). On the other hand, 25 μL of the bFGF formulation (3 μg/25 μL) was added dropwise in the bFGF formulation (a positive control) group, and 25 μL of physiological saline was added dropwise in the negative control groups. […] From the day when the full-thickness defects were created to Day 10, the area where the wounds had still not healed was measured to calculate the ratio of it relative to the area where the wounds were created, and the results were shown in graphs (FIG. 9 (SR-07) and FIG. 10 (SR-08))."}, "[3]": {"test_system": "diabetes full-thickness defect flap model, hairless rats", "test": "Effect to heal diabetic skin ulcers in diabetes flap model", "assay_type": "in vivo, rat", "conditions": "0.2 μg/μL", "procedure": "For the purpose of producing a diabetes model, 7-week old male hairless rats (HWY/slc) were used, and, on the day before full-thickness defect flaps were created, the blood sugar level was measured and streptozotocin was administered once in tail vein (65 mg/kg). The full-thickness defect flap model was produced by measuring the blood sugar level of the rats on the day after the administration of streptozotocin and deciding only the individuals whose blood sugar level was not less than 300 mg/dL as the diabetes model. The full-thickness defect flaps were created by first creating on the back of each rat a pedicle flap of 2×2 cm (square) whose basal part was on its tail side, and then creating a full-thickness defect site (including dermal layer defect) of 1.4×1.4 cm (square: about 2 cm^2) in the central part of the created pedicle flap. Then, the flap sites were immediately sutured to obtain the full-thickness defect flap model. The model is a model of a diabetic intractable wound or skin ulcer, since the model also lacks dermal layer. […] Thereafter, on every measurement day, the test substance was administered once a day; the change of the area of the wound was calculated by measured values from a digital caliper and digital images; and the area where the wounds had still not healed was measured to calculate the ratio of it relative to the area where the wounds were created (Day 0)."}, "[4]": {"test_system": "decubitus model, hairless rats", "test": "Healing effect on decubituses", "assay_type": "in vivo, rat", "conditions": "0.2 μg/uL (4 μg/wound)", "procedure": "In order to confirm the healing effect on a decubitus, one of skin ulcers, a decubitus model was produced using 7-week old male hairless rats (HWY/slc), and the healing effect of the polypeptides of the present invention was examined. A pair of magnets (φ10×5 mm; available from AZBIO KENIS; rare earth magnets; Type: KD-2; Code: 3-118-119; and, Magnetic Flux Density: 350 mT) was contacted to the skin of the back of each rat for 8 hours to induce a decubitus. On the day after inducing the decubitus, the necrotic skin was surgically removed to obtain a decubitus model. After producing the decubitus model, the test substance was administered onto the wound site, and a covering was used to cover over that (Day 0). Only a covering was used in the Control. Thereafter, on every measurement day, the test substance was administered once a day, and the change of the area of the wound was measured by calculating measured values from a digital caliper and digital images. The concentration of the test substances were individually 0.2 μg/uL (4 μg/wound). The area where the burns had still not healed was measured to calculate the ratio of it relative to the area where the burns were created (Day 0)."}}, "note": "Where a SMILES comes first, the peptide text is derived from it. [ ]: non-standard residue; d: D form."}
{"smiles": "CC[C@H](C)[C@H](NC(=O)[C@H](CC(C)C)NC(=O)[C@H](CCCCN)NC(=O)[C@@H](N)CC(C)C)C(=O)N[C@@H](Cc1ccccc1)C(=O)N[C@@H](CC(C)C)C(=O)N[C@@H](Cc1c[nH]cn1)C(=O)N[C@@H](CCCNC(=N)N)C(=O)N[C@@H](CC(C)C)C(=O)N[C@@H](CCCCN)C(=O)N[C@@H](CCCNC(=N)N)C(=O)N[C@@H](CCSC)C(=O)N[C@@H](CCCNC(=N)N)C(=O)N[C@@H](CCCCN)C(=O)N[C@@H](CCCNC(=N)N)C(=O)N[C@@H](CC(C)C)C(=O)N[C@H](CCCCN)C(=O)N[C@@H](CCCNC(=N)N)C(=O)N[C@@H](CCCCN)C(N)=O", "note": "[SR-08] (H-LKLIFLHRLKRMRKRL[dK]RK-NH2; N-terminus assumed)", "values": [{"measurement": "Granulation tissue formation (wet weight around paper disc, FIGS. 5 and 6)", "setting": "[1]", "value": "promoted granulation tissue formation in vivo"}, {"measurement": "Wound closing tension (FIGS. 7 and 8)", "setting": "rat cut-wound model", "value": "the wound closing tension tended to be increased"}, {"measurement": "Healing effect on infected wounds (unhealed area ratio, FIGS. 9 and 10)", "setting": "[2]", "value": "showed a higher healing effect on infected wounds than the bFGF formulation"}, {"measurement": "Number of days until complete healing (FIGS. 12 and 13)", "setting": "[3]", "value": "significantly smaller than the solvent control group"}, {"measurement": "Healing effect on decubitus (unhealed area ratio, FIGS. 16 and 17)", "setting": "[4]; once a day", "value": "showed a therapeutic effect also in decubituses"}, {"measurement": "Ratio of remaining wound area on Day 12, Mean Value", "setting": "[4]; decubitus model, Day 12, Control Group 4.516729", "value": 0.7902}]}
